# Experimental data from EPA's ToxValDB 9.5.
# Assays:
# Rattus norvegicus [1] = test system: Rattus norvegicus
# [2] = test system: Crangonyx richmondensis ssp. laurentianus; conditions: whole body, Monoporeia affinis, parasite infection
# Rattus norvegicus [3] = conditions: oral
# [4] = test system: Crangonyx richmondensis ssp. laurentianus; experiment: FEL; higher = less toxic; conditions: short-term; duration: 22 day; whole body; M/F; Monoporeia affinis; parasite infection
# [5] = short-term, duration: 14 days, oral, gavage, M, Sprague-Dawley, Body Weight: Decreases in body weight at 3 and 5 mg/kg/day (18 and 39%)
# [6] = short-term, duration: 14 days, oral, gavage, M, Sprague-Dawley, Immunotoxicological: Decreased relative spleen weight and increases in cytokine levels
# [7] = short-term, duration: 14 days, oral, gavage, M, Sprague-Dawley, Other Noncancer (Glucose: Increased serum glucose levels (1.11-fold at 1 mg/kg/day and 1.16-fold at 5 mg/kg/day)
# [8] = short-term, duration: 14 days, oral, gavage, M, Sprague-Dawley, Reproductive: 85.4% decrease in serum testosterone and […] increase in estradiol levels at 5 mg/kg/day / atrophy of seminiferous tubule …
# [9] = short-term, duration: 14 days, oral, gavage, M, Sprague-Dawley, Reproductive: Large vacuoles between testicular Sertoli cells and spermatogonia
# [10] = developmental, duration: 7 days, oral, Sprague-Dawley, Body Weight: 30% reduction in body weight of dams + Developmental: 13% reduction in body weight of male pups
# [11] = developmental, duration: 20 days, oral, F, Sprague-Dawley, Developmental: 5-fold increased neonatal mortality on PNDs 1-3
# [12] = developmental, duration: 21 days, oral, F, Sprague-Dawley, Developmental: ~5-fold increased postnatal mortality and severe lung histopathology in pups
# [13] = short-term, duration: 28 days, oral, M, Sprague-Dawley, Body Weight: 12% decrease in terminal body weight
# [14] = short-term, duration: 28 days, oral, M, Sprague-Dawley, Neurological: Degeneration of gonadotropic cells of the pituitary gland at ?1.0 mg/kg/day / dense chromatin, condensed ribosomes, loss of …
# [15] = short-term, duration: 28 days, oral, M, Wistar, Neurological: Tonic convulsions in response to stimuli
# [16] = chronic, duration: 14 weeks, diet, M, Crl:CD(SD) BR, non-segmented neutrophils (N-SEG)
# [17] = reproduction developmental, gavage, M/F, Sprague-Dawley, generation: F1, F1: IL-1beta mRNA level relative change: cortex (PND 0) + F1: IL-1beta mRNA level relative change: cortex (PND 21) + F1: IL-1beta mRNA level…
# [18] = reproduction developmental, gavage, M/F, Sprague-Dawley, generation: F1, F1: TNFalpha mRNA level relative change: cortex (PND 0) + F1: TNFalpha mRNA level relative change: cortex (PND 21)
# [19] = short-term, duration: 28 days, diet, F, Sprague-Dawley, spleen: spleen: relative weight + thymus: apoptotic cells in the thymic cortex + thymus: thymus: absolute weight + Total serum IgM level
# [20] = short-term, duration: 28 days, diet, M, Sprague-Dawley, spleen: spleen: absolute weight + thymus: thymus: absolute weight
# [21] = short-term, duration: 28 days, diet, M, Sprague-Dawley, thymus: apoptotic cells in the thymic cortex + thymus: apoptotic cells in the thymic medulla
smiles,measurement,setting,value
O=C(O)C(F)(F)C(F)(F)C(F)(F)C(F)(F)C(F)(F)C(F)(F)C(F)(F)C(F)(F)F [Perfluorononanoic acid],NOAEL,"Rattus norvegicus [1]; acute, duration: 4 hours, inhalation, nose only, M, CD, Body Weight: Reduced 18% 5 days after exposure + Hepatic: 28% increase in absolute liver weight 5 days after exposure to ?67 mg/m3 + …",67 mg/m3
same,LOAEL,"Rattus norvegicus [1]; acute, duration: 4 hours, inhalation, nose only, M, CD, Body Weight: Reduced 18% 5 days after exposure + Respiratory: Lung noise / labored breathing during and after exposure",590 mg/m3
same,LOAEL,"Rattus norvegicus [1]; acute, duration: 4 hours, inhalation, nose only, M, CD, Death: 14-day LC50",820 mg/m3
same,LOAEL,"Rattus norvegicus [1]; developmental, duration: 20 days, oral, gavage, M/F, Sprague-Dawley, Body Weight: Reduced maternal body weight / approximately 33% on GD 7 and 10% on GD 20 + Developmental: Decreased birth weight in female …",5 mg/kg-day
same,LOAEL,Rattus norvegicus [1]; [5],3 mg/kg-day
same,NOAEL,Rattus norvegicus [1]; [5],1 mg/kg-day
same,NOAEL,"Rattus norvegicus [1]; short-term, duration: 14 days, oral, gavage, M, Sprague-Dawley, Hepatic: Decreased HDL levels at ?1 mg/kg/day",5 mg/kg-day
same,NOAEL,"Rattus norvegicus [1]; short-term, duration: 14 days, oral, gavage, M, Sprague-Dawley, Hepatic: Hepatocellular vacuolation and lipid accumulation at 5 mg/kg/day",5 mg/kg-day
same,LOAEL,"Rattus norvegicus [1]; short-term, duration: 14 days, oral, gavage, M, Sprague-Dawley, Immunotoxicological: 24% increase in relative thymus weight at 1 mg/kg/day / 20% decrease in thymus weight at 3 or 5 mg/kg/day, increases …",1 mg/kg-day
same,LOAEL,Rattus norvegicus [1]; [6],5 mg/kg-day
same,NOAEL,Rattus norvegicus [1]; [6],3 mg/kg-day
same,LOAEL,Rattus norvegicus [1]; [7],1 mg/kg-day
same,NOAEL,Rattus norvegicus [1]; [7],0.2 mg/kg-day
same,LOAEL,Rattus norvegicus [1]; [8],5 mg/kg-day
same,NOAEL,Rattus norvegicus [1]; [8],3 mg/kg-day
same,LOAEL,Rattus norvegicus [1]; [9],5 mg/kg-day
same,NOAEL,Rattus norvegicus [1]; [9],3 mg/kg-day
same,LOAEL,"Rattus norvegicus [1]; short-term, duration: 14 days, oral, gavage, Wistar, Body Weight: Decreased body weight / magnitude of effect was not reported + Endocrine: Decreased androstenedione and testosterone …",5 mg/kg-day
O=S(=O)(O)C(F)(F)C(F)(F)C(F)(F)C(F)(F)C(F)(F)C(F)(F)C(F)(F)C(F)(F)F [Perfluorooctanesulfonic acid],LOAEL,"Rattus norvegicus [1]; developmental, duration: 1 days, oral, M/F, Wistar, Developmental: Decreased spatial learning ability in prenatally or postnatally exposed offspring at ?0.8 mg/kg/day and in offspring exposure…",0.8 mg/kg-day
same,LOAEL,"Rattus norvegicus [1]; developmental, duration: 5 days, oral, M/F, Sprague-Dawley, Body Weight: Reduced body weight in dams / approximately 98% on GD 8 and 33% on GD 20 + Developmental: Decreased birth weight in females …",18.8 mg/kg-day
same,LOAEL,Rattus norvegicus [1]; [10],20 mg/kg-day
same,NOAEL,Rattus norvegicus [1]; [10],5 mg/kg-day
same,LOAEL,Rattus norvegicus [1]; [11],2 mg/kg-day
same,NOAEL,Rattus norvegicus [1]; [11],0.6 mg/kg-day
same,LOAEL,Rattus norvegicus [1]; [12],2 mg/kg-day
same,NOAEL,Rattus norvegicus [1]; [12],0.1 mg/kg-day
same,NOAEL,"Rattus norvegicus [1]; developmental, duration: 84 days, oral, gavage, M/F, Sprague-Dawley, developmental",7.43 mg/L
same,NOAEL,"Rattus norvegicus [1]; short-term, duration: 21 days, oral, M, Sprague-Dawley",10 mg/kg-day
same,LOAEL,"Rattus norvegicus [1]; short-term, duration: 21 days, oral, M, Sprague-Dawley, Reproductive: Delayed maturation of testicular Leydig cells, decreased seminal vesicle weight, decreased epididymal sperm count, decreased …",5 mg/kg-day
same,LOAEL,"Rattus norvegicus [1]; short-term, duration: 25 days, oral, M, Sprague-Dawley, Endocrine: Decreases in serum corticosterone (~58%) and ACTH levels (~11%), decrease in corticotrophin releasing hormone levels in …",0.5 mg/kg-day
same,NOAEL,"Rattus norvegicus [1]; short-term, duration: 28 days, oral, M, Sprague-Dawley",6 mg/kg-day
same,LOAEL,Rattus norvegicus [1]; [13],3.21 mg/kg-day
same,NOAEL,Rattus norvegicus [1]; [13],1.33 mg/kg-day
same,LOAEL,"Rattus norvegicus [1]; short-term, duration: 28 days, oral, M, Sprague-Dawley, Death: 100% by day 26",20 mg/kg-day
same,LOAEL,"Rattus norvegicus [1]; short-term, duration: 28 days, oral, M, Sprague-Dawley, Endocrine: Decreased serum prolactin (~78%) and estradiol concentrations (~18%)",3 mg/kg-day
same,LOAEL,"Rattus norvegicus [1]; short-term, duration: 28 days, oral, M, Sprague-Dawley, Hepatic: Hepatocellular hypertrophy and focal necrosis at ?5 mg/kg/day / fatty degeneration at 20 mg/kg/day + Neurological: Cachexia and …",5 mg/kg-day
same,NOAEL,"Rattus norvegicus [1]; short-term, duration: 28 days, oral, M, Sprague-Dawley, Hepatic: Increased relative liver weight at ?0.14 mg/kg/day",6.34 mg/kg-day
same,LOAEL,Rattus norvegicus [1]; [14],1 mg/kg-day
same,NOAEL,Rattus norvegicus [1]; [14],0.5 mg/kg-day
same,LOAEL,Rattus norvegicus [1]; [15],8.5 mg/kg-day
same,NOAEL,Rattus norvegicus [1]; [15],2 mg/kg-day
same,NOEL,"[2]; short-term, duration: 22 day, M/F",0.2 mg/L
same,LOEL,"[2]; subchronic, duration: 5 week, F",0.01 mg/L
same,NOEL,"Rattus norvegicus [3]; chronic, duration: 14 weeks, diet, F, Crl:CD(SD) BR, non-segmented neutrophils (N-SEG)",1.56 mg/kg-day
same,LOEL,Rattus norvegicus [3]; [16],1.33 mg/kg-day
same,NOEL,Rattus norvegicus [3]; [16],0.34 mg/kg-day
same,NOEL,"Rattus norvegicus [3]; chronic, duration: 104 weeks, diet, F, Crl:CD(SD) BR, blood: basophils + blood: eosinophils + blood: monocytes + blood: white blood cell count (WBC) + spleen: spleen: absolute weight (53 weeks…",1.56 mg/kg-day
same,LOEL,"Rattus norvegicus [3]; chronic, duration: 104 weeks, diet, F, Crl:CD(SD) BR, blood: lymphocytes + blood: segmented neutrophils",0.039 mg/kg-day
same,NOEL,"Rattus norvegicus [3]; chronic, duration: 104 weeks, diet, F, Crl:CD(SD) BR, spleen: spleen: absolute weight (14 weeks)",0.39 mg/kg-day
same,LOEL,"Rattus norvegicus [3]; chronic, duration: 104 weeks, diet, F, Crl:CD(SD) BR, spleen: spleen: absolute weight (14 weeks) + spleen: spleen: relative weight (53 weeks)",1.56 mg/kg-day
same,NOEL,"Rattus norvegicus [3]; chronic, duration: 104 weeks, diet, M, Crl:CD(SD) BR, blood: basophils + blood: eosinophils + blood: monocytes + blood: white blood cell count (WBC) + spleen: spleen: absolute weight (14 weeks…",1.56 mg/kg-day
same,LOEL,"Rattus norvegicus [3]; chronic, duration: 104 weeks, diet, M, Crl:CD(SD) BR, blood: lymphocytes + blood: segmented neutrophils",0.039 mg/kg-day
same,LOEL,"Rattus norvegicus [3]; chronic, duration: 104 weeks, diet, M, Crl:CD(SD) BR, spleen: spleen: absolute weight (53 weeks) + spleen: spleen: relative weight (53 weeks)",1.56 mg/kg-day
same,LOEL,Rattus norvegicus [3]; [17],0.6 mg/kg-day
same,NOEL,Rattus norvegicus [3]; [17],0.1 mg/kg-day
same,LOEL,"Rattus norvegicus [3]; reproduction developmental, gavage, M/F, Sprague-Dawley, generation: F1, F1: IL-1beta mRNA level relative change: hippocampus (PND 0) + F1: TNFalpha mRNA level relative change: hippocampus (PND 0)",0.1 mg/kg-day
same,LOEL,Rattus norvegicus [3]; [18],2 mg/kg-day
same,NOEL,Rattus norvegicus [3]; [18],0.6 mg/kg-day
same,NOEL,"Rattus norvegicus [3]; short-term, duration: 28 days, diet, F, Sprague-Dawley, blood: blood CD3+ cells + blood: blood CD3+CD4+ cells + blood: blood CD3+CD8+ cells + blood: blood CD45RA+ cells + IgG antibody titer (KLH…",100 ppm
same,LOEL,Rattus norvegicus [3]; [19],100 ppm
same,NOEL,Rattus norvegicus [3]; [19],50 ppm
same,LOEL,"Rattus norvegicus [3]; short-term, duration: 28 days, diet, M, Sprague-Dawley, Total serum IgG1 level",2 ppm
same,NOEL,"Rattus norvegicus [3]; short-term, duration: 28 days, diet, M, Sprague-Dawley, blood CD3+ cells + blood: blood CD3+ cells + blood: blood CD3+CD4+ cells + blood: blood CD3+CD8+ cells + blood: blood CD45RA+ cells + IgG …",100 ppm
same,LOEL,Rattus norvegicus [3]; [20],100 ppm
same,NOEL,Rattus norvegicus [3]; [20],50 ppm
same,LOEL,Rattus norvegicus [3]; [21],50 ppm
same,NOEL,Rattus norvegicus [3]; [21],20 ppm
same,FEL,[4],5 mg/L
